Source: paper PMC5989765, “The safety, tolerability, and pharmacokinetic profile of GSK2838232, a novel 2nd generation HIV maturation inhibitor, as assessed in healthy subjects” (Pharmacology Research & Perspectives, 2018)
Values after ≈ are worked out from the molar mass of the structure shown. “Also recorded” adds a separate entry of the source. Read-outs that look alike come from different tables or passages of the source.

How the values were obtained:
[1] = Study 204953 Part 1B: relative bioavailability capsule versus API PiB and food effect, with RTV; assay type: in vivo
Method: (§1) This study was planned as an extension of the previously conducted single‐ and multiple‐dose escalation studies described above. It was a double‐blind, placebo‐controlled, single and repeat dose escalation study of micronized API GSK2838232 with RTV conducted in three parts (Part 1A, Part 1B, and Part 2).
(§2) In Part 1A, a cohort of subjects was given single doses of 50, 100, and 250 mg of GSK2838232 with RTV, following 2 days of RTV predosing, in a sequential dose‐escalation design. Part 1B studied the relative bioavailability of GSK2838232 given as 100 mg (2 × 50 mg) capsules versus the reference API (PiB) in a two‐period crossover design with RTV, following 2 days of RTV predosing. In Period 3, subjects took the capsule formulation and RTV with a moderate fat meal (30% of calories from fat).
(§3) Blood samples were taken via an indwelling cannula or by direct venipuncture, collected into a di‐potassium ethylenediaminetetraacetic acid (K2 EDTA) tube, and placed on wet ice. Samples were centrifuged at approximately 1500g for 10 minutes at approximately 4°C. Exactly 500 μL of the resulting plasma was transferred into labeled 1.4 mL Matrix TrakMate Tubes containing exactly 500 μL of 50 mmol/L citrate buffer, pH 4.0, and mixed well. When 500 μL of plasma was not able to be transferred, the ratio of plasma to citrate buffer was kept at 1:1. Buffered plasma samples were kept on ice and frozen at −70°C within 1 hour of collection. Plasma samples were analyzed for GSK2838232 using a validated analytical method based on protein precipitation, followed by high performance liquid chromatography with tandem mass spectrometry (HPLC/MS/MS) analysis.
(§4) Extracts were analyzed using HPLC (Shimadzu, Nexera, 30 series) and tandem mass spectrometry detection (HPLC‐MS/MS). The mass spectrometer used was an API‐5500 using IonSpray interface (500 V) in positive mode monitoring. The mass transitions were 809.5 to 255.1 and 816.5 to 262.1 for GSK2838232 and [2H7] GSK2838232 (the isotopically labeled internal standard), respectively. The chromatographic conditions utilized a Waters Acquity UPLC BEH C18 column (50 × 2.1 mm, 1.7 μm) with mobile phases consisting of 1 mmol/L ammonium formate:formic acid (100:0.005) (mobile phase A) and acetonitrile:formic acid (100:0.1) (mobile phase B) at a flow rate of 0.6 mL/min, with pump B at 63% held for 2 minutes. The assay was validated to have precision (%RSD) of 0.7%‐6.5% (within‐run) and 1.0%‐5.9% RSD (between‐run) and with accuracy (%bias) of 0.0%‐1.6%. […] The lower limit of quantification (LLQ) was 0.5 ng/mL, using a 50 μL aliquot of K2EDTA acidified plasma. The higher limit of quantification (HLQ) was 500 ng/mL.
(§5) The PK parameters were calculated by standard noncompartmental analysis based on actual sampling times using WinNonlin Version 6.3 or higher. Estimation of AUC used the linear up/log down trapezoidal rule.
For the assessment of relative bioavailability of the capsule formulation compared to the PiB suspension and of the food effect using the capsule formulation (all with RTV), PK parameters were separately analyzed for each treatment using a mixed effects model with fixed effect terms for period and treatment following loge transformation. Subject was treated as a random effect in the model. Point estimates and their associated 90% CIs were constructed for the differences in PK parameter values between the test and reference treatments. The point estimates and their associated 90% CIs were then back‐transformed to provide point estimates and 90% CIs for the ratios of PK parameters from test and reference treatments on the original scale.

[2] = Safety and tolerability in healthy subjects across the four Phase I studies; assay type: in vivo, human
Method: Each one of the four studies described were conducted and completed at a single center in the United States (Parexel International, Baltimore, MD) per the ethical principles of “good clinical practice” (GCP) and the Declaration of Helsinki after obtaining a written informed consent from each subject. The protocols and amendments were approved by Aspire Investigational Review Board (Santee, California, USA).
Other screening assessments included 24‐hour Holter monitoring and baseline echocardiograms.
Nonclinical evaluation in short duration toxicology studies initially gave rise to potential cardiovascular signals which were minimal, appeared sporadically, and were not reproduced in longer term studies. Consequently, there was intensive and extensive cardiovascular monitoring at baseline and post‐dosing, including continuous Holter monitoring and regular cardiac troponin laboratory assessments in these early Phase I studies along with a high degree of vigilance for any findings and/or reported AEs of potential cardiovascular origin.

[3] = Pharmacokinetics in healthy subjects, statements across the Phase I studies; assay type: in vivo, human; details: for half-life: human, plasma, oral
Method: as §3, §4, §5

[4] = Study 204953 Part 1A: single doses 50-250 mg API PiB with RTV, healthy subjects; assay type: in vivo, human; details: for Cmax / Tmax / concentration at 24 h / AUC / half-life: human, plasma, oral; for Tmax / concentration at 24 h: median (range); for concentration at 24 h: read-out: C24; for AUC: read-out: AUC(0‐∞); for half-life: read-out: t½ (converted); for dose proportionality of exposure (AUC and C max): single doses 50 to 250 mg with RTV
Method: as §1, §2, §3, §4, §5

HIV‐1 = test system: HIV‐1; parameters: method as in earlier work; details: cited from earlier work
[5] = 100 mg Fed (moderate, 30% fat meal) versus 100 mg fasted, API capsule formulation with RTV, Study 204953
[6] = Capsule : API PiB, single 100 mg + ritonavir, Study 204953
[7] = single 50 mg API PiB, fasted, with ritonavir (2 days predosing)
[8] = single 100 mg API PiB, fasted, with ritonavir (2 days predosing), geometric mean (95% CI)
[9] = single 100 mg API PiB, fasted, with ritonavir (2 days predosing)
[10] = single 250 mg API PiB, fasted, with ritonavir (2 days predosing), geometric mean (95% CI)
[11] = single 250 mg API PiB, fasted, with ritonavir (2 days predosing)

CC(C)C1=C2[C@H]3CC[C@@H]4[C@@]5(C)CC[C@H](OC(=O)CC(C)(C)C(=O)O)C(C)(C)[C@@H]5CC[C@@]4(C)[C@]3(C)CC[C@@]2([C@@H](O)CN(CCN(C)C)Cc2ccc(Cl)cc2)CC1=O [GSK2838232]
Geometric least square mean ratio [90% CI], AUC(0‐∞) [1, 5]: 1.58 (1.412,1.777) | Geometric least square mean ratio [90% CI], C max [1, 5]: 1.62 (1.376,1.911) | Ratio of Geometric Least Square Means, AUC(0‐∞) [1, 6]: 1.43 | Ratio of Geometric Least Square Means, C max [1, 6]: 1.58 | bioavailability after meal relative to the fasted state ([1]; capsule formulation with RTV, moderate fat (30%) meal, Study 204953): approximately 1.6 fold | C24, capsule relative to PiB suspension ([1]; single 100 mg with RTV): 1.4 fold | C max, capsule relative to PiB suspension ([1]; single 100 mg with RTV): 1.6 fold | t½ geometric LS mean ratio, capsule versus PiB ([1]; single 100 mg with RTV, data not shown): no difference | cardiovascular toxicities / events related to study drug ([2]; healthy subjects): no cardiovascular toxicities were deemed related to study drug administration; also recorded: none were considered definitively related to GSK2838232 | adverse events ([2]; healthy subjects, all dose regimens, up to 250 mg): few mild adverse events (AEs) with similar frequencies to placebo; also recorded: Few adverse events (AEs) were reported across all dose regimens | drug‐related AEs ([2]; healthy subjects, four studies): no clearly identified drug‐related AEs | changes in hematology or clinical chemistry laboratory values, including liver function tests ([2]; healthy subjects, exception one subject with gallstones (not treatment‐related)): no clinically significant changes | AEs assessed with a reasonable likelihood of being drug‐related ([2]; infrequently reported): headache and dizziness | safety and tolerability ([2]; single doses up to 250 mg with 100 mg RTV, repeat doses up to 200 mg with 100 mg RTV for 11 days): good safety and tolerability profile | positive food effect ([3]; capsule formulation discussion): about 1.5 fold | metabolite detected in human plasma ([3]; co‐administration with RTV): O‐glucuronide | absorption with food ([3]; fed state (moderate or high fat meal)): delayed and more variable | increase in AUC with food ([3]; fed versus fasted): ~ 60% | increase in C max with food ([3]; fed versus fasted): ~ 60% | half-life ([3]; nonboosted): ~17 h | half-life ([3]; with RTV): ~34 h | dose proportionality of AUC and C max ([3]; single doses without RTV, 5‐100 mg (SDD, fasted)): proportional PK; also recorded: proportional to dose; also recorded: proportional pharmacokinetics | Cmax ([4]; single 50 mg API PiB, fasted, with ritonavir (2 days predosing), geometric mean (95% CI)): 15.7 ng/mL | Tmax [4, 7]: 3 h | concentration at 24 h [4, 7]: 7.26 ng/mL | Cmax [4, 8]: 24.7 ng/mL | AUC [4, 8]: 846 ng·h/mL | half-life [4, 8]: 17.9 h | Tmax [4, 9]: 5 h | concentration at 24 h [4, 9]: 13.2 ng/mL | Cmax [4, 10]: 63 ng/mL | AUC [4, 10]: 1690 ng·h/mL | half-life [4, 10]: 17.9 h | Tmax [4, 11]: 5.98 h | concentration at 24 h [4, 11]: 24 ng/mL | CL/F [4, 8]: 118 (93.3, 150) L/h | dose proportionality of exposure (AUC and C max) [4]: proportional PK; also recorded: proportional pharmacokinetics | dose proportionality of exposure (AUC and C max) ([4]; listed as GSK283832): generally dose proportional | shift in IC90 with human serum albumin added (HIV‐1; assays to which human serum albumin was added): no significant shift | IC90 in cell‐based assays (termed PA‐IC90, protein‐adjusted 90% inhibitory concentration) (HIV‐1; calculated): 5 ng/mL (≈ 6.18 nM) | IC90 (HIV‐1; calculated, read-out: IC90 in cell‐based assays): 6.4 nM | activity to viruses with key resistance mutations (HIV‐1; panel of viruses): retains activity
